{"source": "patent US11331368B2", "about": "“Angiotensin receptor agonists and uses thereof” (Monash University, priority 2017, dated 2022)", "key": {"human AT1R": {"target": "T1, human AT1R (Homo sapiens, UniProt P30556)", "T1 construct": "expressed in transfected cells", "T1 sequence (P30556 1-359)": "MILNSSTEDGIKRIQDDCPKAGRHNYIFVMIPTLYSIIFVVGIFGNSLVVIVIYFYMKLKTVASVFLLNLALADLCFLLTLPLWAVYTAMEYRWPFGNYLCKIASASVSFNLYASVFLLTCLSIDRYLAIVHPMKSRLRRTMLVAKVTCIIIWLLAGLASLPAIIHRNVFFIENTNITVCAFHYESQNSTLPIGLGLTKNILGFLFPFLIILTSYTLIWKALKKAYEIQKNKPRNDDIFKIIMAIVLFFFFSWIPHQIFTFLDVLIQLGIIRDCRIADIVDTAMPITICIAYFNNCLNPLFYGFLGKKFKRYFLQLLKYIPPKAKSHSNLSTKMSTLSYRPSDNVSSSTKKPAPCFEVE", "assay": "Competition radioligand binding (125I-Sar1-Ile8-AngII) in AT1R-transfected HEK-293 cells", "description": "(§4) This will lead to the generation of IC50 values that determine the relative ability of test compounds to interact with both Angiotensin receptors.\n(§5) Cells were grown to approximately 80% confluence before being re-plated into 48 well plates at 1×10^5 cells/well and grown for 48 hours at 37° C. for a whole cell competition binding assay. [125I]-Sar1Ile8Ang II at 50,000 cpm, incubated for 45 minutes at 37° C., in the absence or presence of unlabeled ligands, prepared in binding buffer (DMEM, 0.1% BSA), were used in the competition assays at concentrations ranging from 1 μM to 10 μM. For each experiment, each ligand concentration was tested in duplicate or triplicate, and each experiment was repeated at least 3 separate times. […] The ability of each ligand to inhibit specific binding of [125I]-Sar1Ile8Ang II was measured on a gamma counter with all counts corrected for NSB."}, "human AT2R": {"target": "T2, human AT2R (Homo sapiens, UniProt P50052)", "T2 construct": "expressed in transfected cells", "T2 sequence (P50052 1-363)": "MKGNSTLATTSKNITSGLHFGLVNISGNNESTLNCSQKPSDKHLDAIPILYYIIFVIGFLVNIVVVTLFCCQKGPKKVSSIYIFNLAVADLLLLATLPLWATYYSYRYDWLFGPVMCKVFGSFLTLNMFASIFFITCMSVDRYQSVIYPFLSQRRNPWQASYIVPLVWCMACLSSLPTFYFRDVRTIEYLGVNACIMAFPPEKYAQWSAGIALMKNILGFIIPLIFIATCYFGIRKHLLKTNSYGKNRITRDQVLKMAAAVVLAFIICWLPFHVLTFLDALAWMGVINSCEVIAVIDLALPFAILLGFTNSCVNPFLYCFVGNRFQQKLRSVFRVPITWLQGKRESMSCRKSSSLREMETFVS", "assay": "Competition radioligand binding (125I-Sar1-Ile8-AngII) in AT2R-transfected HEK-293 cells", "conditions": "for Fold AT2R selectivity: AT2R over AT1R, Table 3; for binding at AT2R (displacement of 125I-Sar1-Ile8-AngII), in words: transfected HEK-293 cells", "description": "as §4, §5"}, "[1]": {"system": "male FVB/N mice on high salt diet, kidney", "assay": "High salt (5%) diet intervention model, kidney", "type": "in vivo, mouse", "conditions": "75 pmol/kg/min s.c., weeks 5-8", "experimental": "(§1) C) In the intervention (or reversal) model, male FVB/N mice were treated with selective AT2Rs agonists after the establishment of cardiovascular disease using a high salt diet, in order to reverse cardiovascular pathologies. In some experiments, the ACE inhibitor captopril (dose) or the ARB candesartan cilexetil (dose) were given for 4 weeks in drinking water. Organs examined included heart, kidney and liver and these were compared to either untreated mice or high salt-fed mice that were treated with saline.\n(§2) Mice were placed on either a normal rodent diet (0.35% NaCl) which acted as control or a high salt diet (5% sodium in food chow) for 8 weeks. After 4 weeks, mice were also treated subcutaneously (via osmotic mini-pump) with either saline or an AT2R agonist (75 pmol/kg/min subcutaneously) for 4 weeks. Mice continued to be fed a high salt diet whilst receiving these treatments.\n(§3) To measure collagen deposition, frozen sections of heart, kidney or aorta (all 5 μm thickness) were air dried for 10 minutes and were brought through 3 times xylene (2 minutes each), and 3 times absolute alcohol washes before being rinsed in tap H2O for 30 seconds. Staining with an optimal concentration of picrosirius red (in this instance 0.05% picrosirius red diluted in saturated picric acid) was performed and left for an hour. Sections were then rinsed in water and differentiated in 0.01M HCl for 2 minutes, followed by dehydration via 3 times absolute alcohol washes. Then, slides were brought through 3 times xylene washes before being cover slipped according to standard histological techniques using DPX as the mounting medium. Images were taken under ×20 magnification, using bright field (Olympus, BX51) and circularized polarized light microscopy (DM IRB, Leica) while percentage of positive interstitial collagen staining per total field of view was quantified using ImageJ 1.46 software (Java, NIH), and averaged out from a total of eight views as the final percentage collagen content in a particular animal.\nKidney sections used either picrosirius red staining as described above or using Mason's Trichrome staining as described below.\nFormalin fixed, paraffin embedded kidneys were sectioned at thickness of 4 μm and were stained with Masson's trichrome according to standard procedures for analysis of kidney fibrosis. […] Sections were re-fixed in Bouin's solution for 1 hour at 56° C. to improve staining quality then rinsed in running tap water for 5-10 minutes to remove yellow colour. Following this, sections were stained in Weigert's iron hematoxylin working solution for 10 minutes. Rinsed in running warm tap water for 10 minutes. Washed in distilled water. Stained in Biebrich scarlet-acid fuchsin solution for 10-15 minutes. Washed in distilled water. Differentiated in phosphomolybdic-phosphotungstic acid solution for 10-15 minutes or until collagen was no longer red. Sections were transferred directly (without rinse) to aniline blue solution and stained for 5-10 minutes. Rinsed briefly in distilled water and differentiated in 1% acetic acid solution for 2-5 minutes. Washed in distilled water. […] Mounted with DPX mounting medium.\nQuantification of kidney fibrosis was performed using images captured with the Aperio scanner (Monash Histology Platform, Monash University), with ×5 magnification. Each kidney section had 5 different fields of view photographed at this magnification. Percentage of tubulointerstitial collagen was analysed and quantified using ImageJ 1.48 software (Java, NIH), and the percentage from 5 random fields of view were averaged for final percentage of collagen for that particular animal. All analysis of collagen expression was conducted in a blinded fashion."}, "[2]": {"system": "male FVB/N mice on high salt diet, kidney", "assay": "High salt (5%) diet intervention model, kidney", "type": "in vivo, mouse", "conditions": "75 pmol/kg/min s.c., weeks 5-8", "remark": "listed apart in the source"}, "[3]": {"system": "male FVB/N mice on high salt diet, heart", "assay": "High salt (5%) diet intervention model, heart", "type": "in vivo, mouse", "conditions": "for cardiac fibrosis by hydroxyproline analysis (LV collagen content) / cardiac oxidative stress (DHE staining) / myofibroblast differentiation in heart (α-SMA): 75 pmol/kg/min s.c.; for cardiac fibrosis by hydroxyproline analysis (LV collagen content) / cardiac oxidative stress (DHE staining) / myofibroblast differentiation in heart (α-SMA) / expression of P-IκBα (marker for NFκB activation) in heart: weeks 5-8; for expression of P-IκBα (marker for NFκB activation) in heart: peptides 75 pmol/kg/min s.c., captopril 3 mg/kg/day; for expression of P-IκBα (marker for NFκB activation) in heart / cardiac fibrosis (picrosirius red): Cand 2 mg/kg/day; for cardiac fibrosis (picrosirius red): weeks 5-8 of high salt diet, peptides 75 pmol/kg/min s.c. mini-pump, captopril 3 mg/kg/day in drinking water", "experimental": "as §1\nA high-salt diet (5% salt) model is a clinically relevant and disease-reversal model which can replicate the high salt intake by humans which is currently a growing problem in the developed countries. High salt intake induces changes in the cardiovascular system and induces remodelling and fibrosis in the heart, kidney and liver.\nas §2\nAll mice which underwent surgery were anaesthetized with Isoflurane (Isorrane) (5% induction and 2.5% maintenance) and an incision made in the midscapular region through which osmotic minipumps (Alzet model 2004, Alza Corp) were inserted for subcutaneous drug administration. The incision area was sutured with 6/0 DY silk (Dynek Pty Ltd) and antibiotic powder applied (Cicatrin, Pfizer) followed by intramuscular injection of the analgesic Cartrophen (0.1 ml of a 1.5 mg/ml stock solution; Biopharm Australia). Systolic blood pressure (SBP) was measured using non-invasive tail-cuff plethysmography apparatus (MC4000 Blood Pressure Analysis System, Hatteras Instrument Inc) before drug treatment (week 0), and then fortnightly. At the end of the 8 week treatment period mice were weighed before being killed by overdose of isoflurane inhalation and cervical dislocation.\nas §3\nImmunostaining was performed on 5 μm thick transverse frozen heart sections. These sections were air dried and fixed in ice-cold acetone for approximately 15 minutes before washing with 0.01M PBS buffer (3×10 minutes). Sections were then incubated with 10% goat serum in 0.01M PBS for 30 minutes to reduce non-specific binding. If the primary antibody is raised in goat, this pre-blocked medium is substituted with 5% BSA in PBS and Triton-X. Next, blocking buffers were removed and the primary antibody to respective markers were applied overnight at room temperature based on the following dilution and origin of the antibodies: α-SMA (1:500, Abcam), Vimentin (1:500, Santa Cruz), P-IκBα (1:200, Cell Signalling), F4/80 macrophage (1:100, Serotec). […]"}}, "data": [{"substance": "Arg-Val-Tyr-Ile-His-β-Pro-Trp [βPro-Trβ-8-Ang III]", "values": [{"measurement": "binding at AT1R (displacement of 125I-Sar1-Ile8-AngII), in words", "setting": "human AT1R", "value": "bind poorly"}, {"measurement": "Fold AT2R selectivity", "setting": "human AT2R", "value": ">400,000 fold"}, {"measurement": "AT2R/AT1R selectivity ratio", "setting": "human AT2R; approximate or conservatively estimated, listed as β-Pro^7-Trp^8-Ang III", "value": "> 400,000 fold"}, {"measurement": "binding at AT2R (displacement of 125I-Sar1-Ile8-AngII), in words", "setting": "human AT2R", "value": "high affinity"}, {"measurement": "kidney glomerular fibrosis (picrosirius red)", "setting": "[1]", "value": "reversed the glomerular fibrosis caused by high salt in the kidney"}, {"measurement": "kidney tubulointerstitial fibrosis (picrosirius red)", "setting": "[1]", "value": "reversed the tubulointerstitial fibrosis caused by high salt in the kidney"}, {"measurement": "macrophage infiltration in kidney (F4/80)", "setting": "[2]", "value": "reversed high salt-induced macrophage infiltration in the kidney"}, {"measurement": "renal fibrosis by hydroxyproline analysis", "setting": "[2]", "value": "reversed the pro-fibrotic effects of high salt in the kidney"}, {"measurement": "renal inflammation (phospho-IκBα expression)", "setting": "[2]", "value": "reversed high salt-induced renal inflammation in the kidney"}, {"measurement": "cardiac fibrosis by hydroxyproline analysis (LV collagen content)", "setting": "[3]", "value": "reversed the pro-fibrotic effects of high salt in the heart"}, {"measurement": "cardiac oxidative stress (DHE staining)", "setting": "[3]", "value": "reversed the oxidative stress effects of high salt in the heart"}, {"measurement": "myofibroblast differentiation in heart (α-SMA)", "setting": "[3]", "value": "reversed myofibroblast differentiation"}, {"measurement": "expression of P-IκBα (marker for NFκB activation) in heart", "setting": "[3]", "value": "reversed"}, {"measurement": "cardiac fibrosis (picrosirius red)", "setting": "[3]", "value": "reversed cardiac fibrosis"}]}, {"substance": "D-Arg-Val-Tyr-Ile-His-β-Pro-Trp [D-Arg-βPro-Trp-8-Ang III]", "values": [{"measurement": "binding at AT1R (displacement of 125I-Sar1-Ile8-AngII), in words", "setting": "human AT1R", "value": "bind poorly"}, {"measurement": "Fold AT2R selectivity", "setting": "human AT2R", "value": ">18,000 fold"}, {"measurement": "binding at AT2R (displacement of 125I-Sar1-Ile8-AngII), in words", "setting": "human AT2R", "value": "high affinity"}, {"measurement": "kidney glomerular fibrosis (picrosirius red)", "setting": "[1]", "value": "reversed the glomerular fibrosis caused by high salt in the kidney"}, {"measurement": "kidney tubulointerstitial fibrosis (picrosirius red)", "setting": "[1]", "value": "reversed the tubulointerstitial fibrosis caused by high salt in the kidney"}, {"measurement": "macrophage infiltration in kidney (F4/80)", "setting": "[2]", "value": "reversed high salt-induced macrophage infiltration in the kidney"}, {"measurement": "renal fibrosis by hydroxyproline analysis", "setting": "[2]", "value": "reversed the pro-fibrotic effects of high salt in the kidney"}, {"measurement": "renal inflammation (phospho-IκBα expression)", "setting": "[2]", "value": "reversed high salt-induced renal inflammation in the kidney"}, {"measurement": "cardiac fibrosis by hydroxyproline analysis (LV collagen content)", "setting": "[3]", "value": "reversed the pro-fibrotic effects of high salt in the heart"}, {"measurement": "cardiac oxidative stress (DHE staining)", "setting": "[3]", "value": "reversed the oxidative stress effects of high salt in the heart"}, {"measurement": "myofibroblast differentiation in heart (α-SMA)", "setting": "[3]", "value": "reversed myofibroblast differentiation"}, {"measurement": "expression of P-IκBα (marker for NFκB activation) in heart", "setting": "[3]", "value": "reversed"}, {"measurement": "cardiac fibrosis (picrosirius red)", "setting": "[3]", "value": "reversed cardiac fibrosis"}]}]}
